From patent US20260374781A1, “NOVEL TRIHETEROCYCLIC COMPOUNDS” (IDENCE CO., LTD., priority 2022, published 2026)

Test system: AsPC-1 cells
Test: Cell Proliferation Assay, AsPC-1 (CellTiter-Glo 2.0 viability)
Assay type: cell-based
Conditions: AsPC-1 pancreatic cancer (KRAS G12D mutation)
Description: Test Example 3: Cell Proliferation Assay
Cell viability testing of test compounds in AsPC-1 pancreatic cancer (KRAS G12D mutation) or SW480 colon cancer (KRAS G12V mutation) cells for 72 hours
The reference compound Staurosporine was purchased from Sigma-Aldrich (Saint Louis, MI), and CellTiter-Glo® 2.0 Luminescent cell viability assay reagent (cat #G9243) was purchased from Promega (Madison, WI). AsPC-1 and SW480 cell lines were purchased from American Type Culture Collection (Manassas, VA). AsPC-1 cells were cultured with RPMI-1640 (ATCC, cat #30-2001) and SW480 cells were cultured with DMEM (ATCC cat #30-2002).
A medium supplemented with 10% FBS (Sigma-Aldrich, cat #F2442) and 100 µg/mL of penicillin-streptomycin (Sigma-Aldrich, cat #P4333) was used. Cells were cultured at 37 °C in a humidified atmosphere of 5% CO2 and 95% air.
• 1. The test compound and reference compound, Staurosporine were dissolved in DMSO solution to prepare 20 mM (test compound) and 10 mM (control compound, Staurosporine) in the Source Plate and diluted with DMSO to 3-fold and 10 doses. • 2. From the Source Plate, 10 volumes of 125 nL test compound or 25 nL reference compound were dispensed into wells of a 384-well culture plate (VWR, cat #82050-076) using Echo 655. • 3. 25 μL of culture medium including 2000 AsPC-1 or SW480 cells was dispensed into each 384-well cell culture plate. • 4. Cells were cultured with the compound for 72 hours at 37 °C and 5% CO2 conditions. • 5. 25 μL of CellTiter-Glo 2.0 reagent was added to each well of the plate. • 6. The contents were mixed for 2 minutes on an orbital shaker, and the luminescence signal was stabilized at room temperature for 15 minutes. • 7. Luminescence signals were measured with an Envision 2104 Multilabel Reader (PerkinElmer, Santa Clara, CA), and the number of surviving cells was determined through quantification of ATP present in each culture. • 8. IC50 values were calculated based on the Sigmoidal dose-response equation in the GraphPad Prism 4 program.

`CC(c1cccnc1N)N1CCOc2c(Cl)c(-c3ccc(F)c4sc(N)c(C#N)c34)c(F)c3nc(OC[C@@]45CCCN4C[C@H](F)C5)nc1c23` (stereo partly drawn) [Example 29b, (4S)-2-amino-4-(4-(1-(2-aminopyridin-3-yl)ethyl)-8-chloro-10-fluoro-2-(((2R,7aS)-2-fluorotetrahydro-1H-pyrrolizin-7a(5H)-yl)methoxy)-5,6-dihydro-4H-[1,4]oxazepino[5,6,7-de]quinazolin-9-yl)-7-fluorobenzo[b]thiophene-3-carbonitrile] was tested, and the IC50 (72 hours) was 1 to 10 µM.

Compound `C#Cc1c(F)ccc2cc(O)cc(-c3nc4c5c(nc(OC[C@@]67CCCN6C[C@H](F)C7)nc5c3F)N(C(C)c3cccnc3N)C[C@H](C)O4)c12` (mixture of isomers) [Example 6, 4-((8S)-10-(1-(2-aminopyridin-3-yl)ethyl)-4-fluoro-2-(((2R,7aS)-2-fluorotetrahydro-1H-pyrrolizin-7a(5H)-yl)methoxy)-8-methyl-9,10-dihydro-8H-7-oxa-1,3,6,10-tetraazacyclohepta[de]naphthalen-5-yl)-5-ethynyl-6-fluoronaphthalen-2-ol] has an IC50 (Homo sapiens, ASPC1, 72 h) of 1 to 10 µM.

`C#Cc1c(F)ccc2cc(O)cc(-c3nc4c5c(nc(OC[C@@H]6CCN6CC(F)F)nc5c3F)N(C(C)c3cccnc3N)C[C@H](C)O4)c12` (stereo partly drawn) [Example 8, 4-((8S)-10-(1-(2-aminopyridin-3-yl)ethyl)-2-(((S)-1-(2,2-difluoroethyl)azetidin-2-yl)methoxy)-4-fluoro-8-methyl-9,10-dihydro-8H-7-oxa-1,3,6,10-tetraazacyclohepta[de]naphthalen-5-yl)-5-ethynyl-6-fluoronaphthalen-2-ol] gave an IC50 (Homo sapiens, ASPC1, 72 h) greater than 10 µM.

`C#Cc1c(F)ccc2cc(O)cc(-c3nc4c5c(nc(OCC67CC(=C)CN6CC(=C)C7)nc5c3F)N(C(C)c3cccnc3N)C[C@H](C)O4)c12` (stereo partly drawn) [Example 4, 4-((8S)-10-(1-(2-aminopyridin-3-yl)ethyl)-2-((2,6-dimethylenetetrahydro-1H-pyrrolizin-7a(5H)-yl)methoxy)-4-fluoro-8-methyl-9,10-dihydro-8H-7-oxa-1,3,6,10-tetraazacyclohepta[de]naphthalen-5-yl)-5-ethynyl-6-fluoronaphthalen-2-ol] showed an IC50 (Homo sapiens, ASPC1, 72 h) greater than 10 µM.

For `C#Cc1c(F)ccc2cc(O)cc(-c3nc4c5c(nc(OCC6(CN7CCOCC7)CC6)nc5c3F)N(C(C)c3cccnc3N)C[C@H](C)O4)c12` (stereo partly drawn) [Example 5, 4-((8S)-10-(1-(2-aminopyridin-3-yl)ethyl)-4-fluoro-8-methyl-2-((1-(morpholinomethyl)cyclopropyl)methoxy)-9,10-dihydro-8H-7-oxa-1,3,6,10-tetraazacyclohepta[de]naphthalen-5-yl)-5-ethynyl-6-fluoronaphthalen-2-ol], the IC50 (Homo sapiens, ASPC1, 72 h) was greater than 10 µM.

With `CCc1c(F)ccc2cc(O)cc(-c3nc4c5c(nc(OC[C@@]67CCCN6C[C@H](F)C7)nc5c3F)N([C@@H](C)c3cccnc3N)CCO4)c12` [Example 14b, 4-(10-((S)-1-(2-aminopyridin-3-yl)ethyl)-4-fluoro-2-(((2R,7aS)-2-fluorotetrahydro-1H-pyrrolizin-7a(5H)-yl)methoxy)-9,10-dihydro-8H-7-oxa-1,3,6,10-tetraazacyclohepta[de]naphthalen-5-yl)-5-ethyl-6-fluoronaphthalen-2-ol] the IC50 (Homo sapiens, ASPC1, 72 h) was 1 to 10 µM.

For `CCc1c(F)ccc2cc(O)cc(-c3nc4c5c(nc(OC[C@@H]6CCCN6CC(F)F)nc5c3F)N(C(C)c3cccnc3N)CCO4)c12` (stereo partly drawn) [Example 27, 4-(10-(1-(2-aminopyridin-3-yl)ethyl)-2-(((S)-1-(2,2-difluoroethyl)pyrrolidin-2-yl)methoxy)-4-fluoro-9,10-dihydro-8H-7-oxa-1,3,6,10-tetraazacyclohepta[de]naphthalen-5-yl)-5-ethyl-6-fluoronaphthalen-2-ol], the IC50 (Homo sapiens, ASPC1, 72 h) was greater than 10 µM.

In the case of `CCc1c(F)ccc2cc(O)cc(-c3nc4c5c(nc(OCC6(CN7CC[C@@H](F)C7)CC6)nc5c3F)N(C(C)c3cccnc3N)CCO4)c12` (stereo partly drawn) [Example 26, 4-(10-(1-(2-aminopyridin-3-yl)ethyl)-4-fluoro-2-((1-(((R)-3-fluoropyrrolidin-1-yl)methyl)cyclopropyl)methoxy)-9,10-dihydro-8H-7-oxa-1,3,6,10-tetraazacyclohepta[de]naphthalen-5-yl)-5-ethyl-6-fluoronaphthalen-2-ol], the IC50 (Homo sapiens, ASPC1, 72 h) is reported as 1 to 10 µM.

In the case of `CCc1c(F)ccc2cc(O)cc(-c3nc4c5c(nc(OC[C@@]67CCCN6C[C@H](F)C7)nc5c3F)N(C(C)c3ccccc3N)CCO4)c12` (stereo partly drawn) [Example 21, 4-(10-(1-(2-aminophenyl)ethyl)-4-fluoro-2-(((2R,7aS)-2-fluorotetrahydro-1H-pyrrolizin-7a(5H)-yl)methoxy)-9,10-dihydro-8H-7-oxa-1,3,6,10-tetraazacyclohepta[de]naphthalen-5-yl)-5-ethyl-6-fluoronaphthalen-2-ol], the IC50 (Homo sapiens, ASPC1, 72 h) is reported as greater than 10 µM.

`C#Cc1c(F)ccc2cc(O)cc(-c3nc4c5c(nc(OC[C@@H]6CC(F)(F)CN6C)nc5c3F)N(C(C)c3cccnc3N)CCO4)c12` (stereo partly drawn) [Example 15, 4-(10-(1-(2-aminopyridin-3-yl)ethyl)-2-(((S)-4,4-difluoro-1-methylpyrrolidin-2-yl)methoxy)-4-fluoro-9,10-dihydro-8H-7-oxa-1,3,6,10-tetraazacyclohepta[de]naphthalen-5-yl)-5-ethynyl-6-fluoronaphthalen-2-ol] gave an IC50 (Homo sapiens, ASPC1, 72 h) of 1 to 10 µM.

With `C=C1CN2CC(=C)CC2(COc2nc3c4c(nc(-c5cc(O)cc6ccc(F)c(CC)c56)c(F)c4n2)OCCN3C(C)c2cccnc2N)C1` (centres unmarked) [Example 19, 4-(10-(1-(2-aminopyridin-3-yl)ethyl)-2-((2,6-dimethylenetetrahydro-1H-pyrrolizin-7a(5H)-yl)methoxy)-4-fluoro-9,10-dihydro-8H-7-oxa-1,3,6,10-tetraazacyclohepta[de]naphthalen-5-yl)-5-ethyl-6-fluoronaphthalen-2-ol] the IC50 (Homo sapiens, ASPC1, 72 h) was 1 to 10 µM.

In the case of `C[C@H]1CN([C@@H](C)c2cccnc2N)c2nc(OC[C@@]34CCCN3C[C@H](F)C4)nc3c(F)c(-c4cc(O)cc5ccc(F)c(F)c45)nc(c23)O1` [Example 10b, 4-((S)-10-((S)-1-(2-aminopyridin-3-yl)ethyl)-4-fluoro-2-(((2R,7aS)-2-fluorotetrahydro-1H-pyrrolizin-7a(5H)-yl)methoxy)-8-methyl-9,10-dihydro-8H-7-oxa-1,3,6,10-tetraazacyclohepta[de]naphthalen-5-yl)-5,6-difluoronaphthalen-2-ol], the IC50 (Homo sapiens, ASPC1, 72 h) is reported as greater than 10 µM.

With `C#Cc1c(F)ccc2cc(O)cc(-c3nc4c5c(nc(OC[C@@]67CCCN6C[C@H](F)C7)nc5c3F)N([C@@H](C)c3cccnc3N)CCO4)c12` [Example 13b, 4-(10-((S)-1-(2-aminopyridin-3-yl)ethyl)-4-fluoro-2-(((2R,7aS)-2-fluorotetrahydro-1H-pyrrolizin-7a(5H)-yl)methoxy)-9,10-dihydro-8H-7-oxa-1,3,6,10-tetraazacyclohepta[de]naphthalen-5-yl)-5-ethynyl-6-fluoronaphthalen-2-ol] the IC50 (72 hours) was greater than 10 µM.

For `CC(c1cccnc1N)N1C[C@H](C)Oc2nc(-c3cc(O)cc(Cl)c3C3CC3)c(F)c3nc(OC[C@@]45CCCN4C[C@H](F)C5)nc1c23` (stereo partly drawn) [Example 11, 3-((8S)-10-(1-(2-aminopyridin-3-yl)ethyl)-4-fluoro-2-(((2R,7aS)-2-fluorotetrahydro-1H-pyrrolizin-7a(5H)-yl)methoxy)-8-methyl-9,10-dihydro-8H-7-oxa-1,3,6,10-tetraazacyclohepta[de]naphthalen-5-yl)-5-chloro-4-cyclopropylphenol], the IC50 (Homo sapiens, ASPC1, 72 h) was greater than 10 µM.
